Results as given in ChEMBL document CHEMBL5143755, “Restoration of Motor Function Post-Neurological Injury Using Serotonergic Agonist” (ACS Med Chem Lett, 2022).

Target: 5-hydroxytryptamine receptor 2A (Homo sapiens, UniProt P28223)
Experiment: Agonist activity at human 5-HT2A receptor assessed as activation of calcium mobilization incubated for 2 mins by Calcium-6 dye based FLIPR assay
Type: functional

Sequence of 5-hydroxytryptamine receptor 2A (P28223 whole entry): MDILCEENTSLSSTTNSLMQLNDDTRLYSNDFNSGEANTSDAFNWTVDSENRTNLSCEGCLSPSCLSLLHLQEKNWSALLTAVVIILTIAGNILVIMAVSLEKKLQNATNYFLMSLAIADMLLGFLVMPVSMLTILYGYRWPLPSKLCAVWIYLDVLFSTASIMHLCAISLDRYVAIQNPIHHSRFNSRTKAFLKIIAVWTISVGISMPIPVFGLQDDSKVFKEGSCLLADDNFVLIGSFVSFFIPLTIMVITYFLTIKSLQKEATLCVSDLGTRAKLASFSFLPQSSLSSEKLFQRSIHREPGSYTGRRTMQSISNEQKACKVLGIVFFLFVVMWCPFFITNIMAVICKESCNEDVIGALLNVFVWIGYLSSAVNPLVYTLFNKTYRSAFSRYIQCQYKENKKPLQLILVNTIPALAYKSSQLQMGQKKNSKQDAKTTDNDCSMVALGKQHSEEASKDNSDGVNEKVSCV

SMILES	EC50
[2H]C1([2H])CC(c2c[nH]c3cccc(OCc4ccccc4)c23)C([2H])([2H])N1C (stereo not given)	> 10 µM
[2H]C1([2H])CC(c2c[nH]c3cccc(O)c23)C([2H])([2H])N1C (stereo not given)	< 1 µM
[2H]C([2H])N1CCC(c2c[nH]c3cccc(O)c23)C1 (stereo not given)	< 1 µM
[2H]C1([2H])CC(c2c[nH]c3cccc(O)c23)C([2H])([2H])N1 (stereo not given)	> 10 µM
[2H]C1([2H])CC(c2c[nH]c3cccc(OCc4ccccc4)c23)C([2H])([2H])N1 (stereo not given)	< 1 µM
